Test results: ChEMBL document CHEMBL5042496, “An unanticipated discovery towards novel naphthalimide corbelled aminothiazoximes as potential anti-MRSA agents and allosteric modulators for PBP2a” (Eur J Med Chem, 2022)
Converted amounts (≈) assume the structure as drawn. The source made the active and inactive calls. The rule behind the calls is not given here.

Assays:
Staphylococcus = test: Binding affinity to Staphylococcus aureus PBP2a measured after 6 hrs by ELISA; details: filed as positive allosteric modulator
DNA [1] = test: Binding affinity to DNA (unknown origin) assessed as decrease in fluorescence intensity at 5 10^-5 mol/L by acridine orange staining based fluorescence microscopic analysis; assay type: functional; details: Homo sapiens
[2] = Hemolytic activity in human RBC assessed as hemolysis incubated for 1 hr; assay type: toxicity, cell-based, Erythrocyte; details: red blood cells
Staphylococcus aureus [3] = test: Antibacterial activity against methicillin resistant Staphylococcus aureus treated over 16 serial passages measured after 24 hrs by resistance development assay; assay type: functional, organism-based
Staphylococcus aureus [4] = test: Antibacterial activity against methicillin-resistant Staphylococcus aureus assessed as inhibition of bacterial growth at 2 time MIC measured after 2 hrs; assay type: functional, organism-based
[5] = target: T1, MecA (Staphylococcus aureus) (UniProt Q7DHH4); test: Binding affinity to Staphylococcus aureus PBP2a measured after 6 hrs by ELISA in the presence of Norfloxacin; details: filed as positive allosteric modulator
T1 sequence (whole entry): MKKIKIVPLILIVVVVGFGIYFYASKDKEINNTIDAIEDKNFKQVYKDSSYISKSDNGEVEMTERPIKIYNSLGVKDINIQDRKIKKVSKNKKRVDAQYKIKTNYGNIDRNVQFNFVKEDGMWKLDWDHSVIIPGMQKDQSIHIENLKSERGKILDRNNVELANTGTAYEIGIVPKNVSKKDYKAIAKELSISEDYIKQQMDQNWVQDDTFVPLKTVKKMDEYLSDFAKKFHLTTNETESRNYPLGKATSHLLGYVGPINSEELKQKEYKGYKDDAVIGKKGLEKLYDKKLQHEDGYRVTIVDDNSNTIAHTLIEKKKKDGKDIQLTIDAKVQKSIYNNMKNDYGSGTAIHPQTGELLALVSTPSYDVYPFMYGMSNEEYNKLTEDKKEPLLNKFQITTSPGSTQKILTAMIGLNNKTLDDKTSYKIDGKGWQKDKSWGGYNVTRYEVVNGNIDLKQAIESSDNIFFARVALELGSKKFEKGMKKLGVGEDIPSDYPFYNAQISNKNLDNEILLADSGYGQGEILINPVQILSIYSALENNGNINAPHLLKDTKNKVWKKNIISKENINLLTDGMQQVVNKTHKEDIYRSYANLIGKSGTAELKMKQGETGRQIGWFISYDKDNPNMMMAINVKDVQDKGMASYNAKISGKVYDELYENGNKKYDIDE

Staphylococcus aureus [6] = test: Antibacterial activity against methicillin-resistant Staphylococcus aureus assessed as respiratory pathway inactivation by measuring decrease in LDH activity at MIC incubated for 6 hrs by LDH assay; assay type: functional; set-up: scale not given: the % may be the effect or the level left
Pseudomonas aeruginosa [7] = test: Antibacterial activity against Pseudomonas aeruginosa assessed as bacterial growth inhibition measured after 24 hrs by two fold serial dilution technique; assay type: functional
DNA [8] = test: Binding affinity to DNA (unknown origin) assessed as decrease in maximum absorption peak at 410nm at 3 10^-5 mol/L by UV spectrophotometric analysis; assay type: functional; details: Homo sapiens
Acinetobacter baumannii = test: Antibacterial activity against Acinetobacter baumannii assessed as bacterial growth inhibition measured after 24 hrs by two fold serial dilution technique; assay type: functional
Staphylococcus aureus [9] = test: Induction of ROS generation in methicillin-resistant Staphylococcus aureus after 6 hrs by DCFH-DA staining based fluorescence assay; assay type: functional, organism-based
Staphylococcus aureus [10] = test: Antibacterial activity against methicillin-resistant Staphylococcus aureus assessed as pitted cell structures at 1 time MIC incubated for 8 hrs by SEM analysis; assay type: functional, organism-based
Staphylococcus aureus [11] = test: Antibacterial activity against methicillin-resistant Staphylococcus aureus assessed as inhibition of bacterial growth at 0.5 time MIC measured after 2 hrs; assay type: functional, organism-based
Enterococcus faecium = test: Antibacterial activity against Enterococcus faecium assessed as bacterial growth inhibition measured after 24 hrs by two fold serial dilution technique; assay type: functional
Cell membrane [12] = test: Induction of inner membrane permeabilization in methicillin-resistant Staphylococcus aureus at 1 time MIC measured for 1 hr by PI dye-based fluorescence assay; details: TDE = time-dependent effect
Pseudomonas aeruginosa [13] = test: Antibacterial activity against Pseudomonas aeruginosa ATCC 27853 assessed as bacterial growth inhibition measured after 24 hrs by two fold serial dilution technique; assay type: functional
Staphylococcus aureus [14] = test: Antibacterial activity against methicillin-resistant Staphylococcus aureus assessed as disrupted cell shapes at 1 time MIC incubated for 8 hrs by SEM analysis; assay type: functional, organism-based
Escherichia coli [15] = test: Antibacterial activity against Escherichia coli assessed as bacterial growth inhibition measured after 24 hrs by two fold serial dilution technique; assay type: functional
Staphylococcus aureus [16] = test: Antibacterial activity against methicillin-resistant Staphylococcus aureus assessed as respiratory pathway inactivation by measuring decrease in LDH activity measured after 6 hrs by LDH assay; assay type: functional, organism-based
Cell membrane [17] = test: Induction of cell membrane disruption in methicillin-resistant Staphylococcus aureus assessed as increase in protein leakage measured after 6 hrs by Bradford assay
Staphylococcus aureus [18] = test: Antibacterial activity against methicillin-resistant Staphylococcus aureus assessed as shriveled cell structures at 1 time MIC incubated for 8 hrs by SEM analysis; assay type: functional, organism-based
L929 = test: Cytotoxicity against mouse L929 cells assessed as reduction in cell viability at 0.39 to 100 ug/ml incubated for 24 hrs by MTT assay; assay type: toxicity, cell-based; details: l929, 24 h, dose 0.39-100 µg/ml
Staphylococcus aureus [19] = test: Antibacterial activity against methicillin-resistant Staphylococcus aureus assessed as bacterial growth inhibition measured after 24 hrs by two fold serial dilution technique; assay type: functional
Klebsiella pneumoniae = test: Antibacterial activity against Klebsiella pneumoniae assessed as bacterial growth inhibition measured after 24 hrs by two fold serial dilution technique; assay type: functional
Homo sapiens = organism: Homo sapiens; test: Binding affinity to lipase (unknown origin) assessed as decrease in fluorescence intensity measured after 5 mins by fluorescence spectrofluorometric analysis
Cell membrane [20] = test: Induction of inner membrane permeabilization in methicillin-resistant Staphylococcus aureus at 2 times MIC measured for 1 hr by PI dye-based fluorescence assay; details: TDE = time-dependent effect
Staphylococcus aureus [21] = test: Antibacterial activity against Staphylococcus aureus assessed as bacterial growth inhibition measured after 24 hrs by two fold serial dilution technique; assay type: functional
Cell membrane [22] = test: Induction of membrane depolarization in methicillin-resistant Staphylococcus aureus at MIC measured upto 1 hr by DiSC35 dye-based fluorescence assay; details: time hrs <=1, TDE = time-dependent effect
Escherichia coli [23] = test: Antibacterial activity against Escherichia coli ATCC 25922 assessed as bacterial growth inhibition measured after 24 hrs by two fold serial dilution technique; assay type: functional
Staphylococcus aureus [24] = test: Antibacterial activity against Staphylococcus aureus ATCC 29213 assessed as bacterial growth inhibition measured after 24 hrs by two fold serial dilution technique; assay type: functional
DNA [25] = test: Binding affinity to DNA (unknown origin) assessed as hypochromicity at 0.2 to 0.8 10^-5 mol/L by UV spectrophotometric analysis; assay type: functional; details: Homo sapiens; dose 0.2-0.8 10^-5mol/L
[26] = target: T1, MecA (Staphylococcus aureus); test: Binding affinity to Staphylococcus aureus PBP2a measured after 6 hrs by ELISA in the presence of Ceftizoxime; details: filed as positive allosteric modulator
Staphylococcus aureus [27] = test: Antibacterial activity against methicillin-resistant Staphylococcus aureus assessed as inhibition of bacterial growth at 1 time MIC measured after 2 hrs; assay type: functional, organism-based
Staphylococcus aureus [28] = test: Antibacterial activity against Staphylococcus aureus ATCC 25923 assessed as bacterial growth inhibition measured after 24 hrs by two fold serial dilution technique; assay type: functional
Staphylococcus aureus [29] = test: Antibacterial activity against methicillin resistant Staphylococcus aureus treated over 10 serial passages measured after 24 hrs by resistance development assay; assay type: functional, organism-based

With `CO/N=C(\C(=O)N1CCN(c2ccc3c4c(cccc24)C(=O)N(CCN(C)C)C3=O)CC1)c1csc(N)n1` the Activity (Staphylococcus) was 4.58 µg/mL, the Activity (DNA [1]) was “Active” and the HC50 at 1 h [2] was 205 µg/mL. The Activity (Staphylococcus aureus [3]) was “Active”, the Activity (Staphylococcus aureus [4]) was “Active” and the Activity [5] was 4.96 ng/mL. The Activity (Staphylococcus aureus [6]) was 45%, the MIC (Pseudomonas aeruginosa [7]) was 16 mg/L (≈ 29.9 µM) and the Activity (DNA [8]) was “Active”. For the same compound, the MIC (Acinetobacter baumannii) was 16 mg/L (≈ 29.9 µM), the Activity (Staphylococcus aureus [9]) was “Dose-Dependent Effect” and the Activity (Staphylococcus aureus [10]) was “Active”. The Activity (Staphylococcus aureus [11]) was “Active”, the MIC (Enterococcus faecium) was 4 mg/L (≈ 7.47 µM) and the Activity (Cell membrane [12]) was “Tde”. For the same compound, the MIC (Pseudomonas aeruginosa [13]) was 8 mg/L (≈ 14.9 µM), the Activity (Staphylococcus aureus [14]) was “Active” and the MIC (Escherichia coli [15]) was 2 mg/L (≈ 3.73 µM). The Activity (Staphylococcus aureus [16]) was “Dose-Dependent Effect”, the Activity (Cell membrane [17]) was “Dose-Dependent Effect” and the Activity (Staphylococcus aureus [18]) was “Active”. For the same compound, the Activity (L929) was “Non-Toxic”, the MIC (Staphylococcus aureus [19]) was 0.5 mg/L (≈ 0.933 µM) and the MIC (Klebsiella pneumoniae) was 4 mg/L (≈ 7.47 µM). For the same compound, the Activity (Homo sapiens) was “Active”, the Activity (Cell membrane [20]) was “Tde” and the MIC (Staphylococcus aureus [21]) was 16 mg/L (≈ 29.9 µM). For the same compound, the Activity (Cell membrane [22]) was “Tde”, the MIC (Escherichia coli [23]) was 16 mg/L (≈ 29.9 µM) and the MIC (Staphylococcus aureus [24]) was 4 mg/L (≈ 7.47 µM). The Activity (DNA [25]) was “Active”, the Activity [26] was 1.29 ng/mL and the Activity (Staphylococcus aureus [27]) was “Active”. It also gave an MIC (Staphylococcus aureus [28]) of 8 mg/L (≈ 14.9 µM).

In the case of `CO/N=C(\C(=O)N[C@@H]1C(=O)N2C(C(=O)O)=CCS[C@H]12)c1csc(N)n1`, the Activity (Staphylococcus) is reported as 7.45 µg/mL.

With `CN(C)CCN1C(=O)c2cccc3c(Br)ccc(c23)C1=O` the Activity (Staphylococcus) was 7.08 µg/mL.

`CO/N=C(\C(=O)N1CCN(c2ccc3c4c(cccc24)C(=O)N(OC)C3=O)CC1)c1csc(N)n1` gave an Activity (Staphylococcus) of 5.43 µg/mL, an HC50 at 1 h [2] of 513 µg/mL and an MIC (Pseudomonas aeruginosa [7]) of 128 mg/L (≈ 259 µM). For the same compound, the MIC (Acinetobacter baumannii) was 4 mg/L (≈ 8.09 µM), the MIC (Enterococcus faecium) was 2 mg/L (≈ 4.04 µM) and the MIC (Pseudomonas aeruginosa [13]) was 32 mg/L (≈ 64.7 µM). For the same compound, the MIC (Escherichia coli [15]) was 64 mg/L (≈ 129 µM), the MIC (Staphylococcus aureus [19]) was 128 mg/L (≈ 259 µM) and the MIC (Klebsiella pneumoniae) was 128 mg/L (≈ 259 µM). The MIC (Staphylococcus aureus [21]) was 128 mg/L (≈ 259 µM), the MIC (Escherichia coli [23]) was 64 mg/L (≈ 129 µM) and the MIC (Staphylococcus aureus [24]) was 64 mg/L (≈ 129 µM). The MIC (Staphylococcus aureus [28]) was 64 mg/L (≈ 129 µM).

`CO/N=C(\C(=O)N1CCN(c2ccc3c4c(cccc24)C(=O)N(c2ncc(C)s2)C3=O)CC1)c1csc(N)n1` showed an HC50 at 1 h [2] of 234 µg/mL, an MIC (Pseudomonas aeruginosa [7]) of 64 mg/L (≈ 114 µM) and an MIC (Acinetobacter baumannii) of 128 mg/L (≈ 228 µM). It also gave an MIC (Enterococcus faecium) of 64 mg/L (≈ 114 µM), an MIC (Pseudomonas aeruginosa [13]) of 32 mg/L (≈ 57 µM) and an MIC (Escherichia coli [15]) of 128 mg/L (≈ 228 µM). The MIC (Staphylococcus aureus [19]) was 8 mg/L (≈ 14.2 µM), the MIC (Klebsiella pneumoniae) was 1 mg/L (≈ 1.78 µM) and the MIC (Staphylococcus aureus [21]) was 128 mg/L (≈ 228 µM). The MIC (Escherichia coli [23]) was 16 mg/L (≈ 28.5 µM), the MIC (Staphylococcus aureus [24]) was 64 mg/L (≈ 114 µM) and the MIC (Staphylococcus aureus [28]) was 128 mg/L (≈ 228 µM).

With `CCn1cc(C(=O)O)c(=O)c2cc(F)c(N3CCNCC3)cc21` [NORFLOXACIN] the Activity (Staphylococcus) was 7.67 µg/mL, the MIC (Pseudomonas aeruginosa [7]) was 4 mg/L (≈ 12.5 µM) and the MIC (Acinetobacter baumannii) was 1 mg/L (≈ 3.13 µM). The MIC (Enterococcus faecium) was 8 mg/L (≈ 25.1 µM), the MIC (Pseudomonas aeruginosa [13]) was 2 mg/L (≈ 6.26 µM) and the MIC (Escherichia coli [15]) was 2 mg/L (≈ 6.26 µM). For the same compound, the Activity (Staphylococcus aureus [29]) was “inactive”, the MIC (Staphylococcus aureus [19]) was 16 mg/L (≈ 50.1 µM) and the MIC (Klebsiella pneumoniae) was 4 mg/L (≈ 12.5 µM). For the same compound, the MIC (Staphylococcus aureus [21]) was 8 mg/L (≈ 25.1 µM), the MIC (Escherichia coli [23]) was 4 mg/L (≈ 12.5 µM) and the MIC (Staphylococcus aureus [24]) was 16 mg/L (≈ 50.1 µM). It also gave an MIC (Staphylococcus aureus [28]) of 16 mg/L (≈ 50.1 µM).

`CO/N=C(\C(=O)N1CCN(c2ccc3c4c(cccc24)C(=O)N(C)C3=O)CC1)c1csc(N)n1` showed an HC50 at 1 h [2] of 343 µg/mL, an MIC (Pseudomonas aeruginosa [7]) of 64 mg/L (≈ 134 µM) and an MIC (Acinetobacter baumannii) of 8 mg/L (≈ 16.7 µM). The MIC (Enterococcus faecium) was 8 mg/L (≈ 16.7 µM), the MIC (Pseudomonas aeruginosa [13]) was 32 mg/L (≈ 66.9 µM) and the MIC (Escherichia coli [15]) was 32 mg/L (≈ 66.9 µM). It also gave an MIC (Staphylococcus aureus [19]) of 4 mg/L (≈ 8.36 µM), an MIC (Klebsiella pneumoniae) of 8 mg/L (≈ 16.7 µM) and an MIC (Staphylococcus aureus [21]) of 16 mg/L (≈ 33.4 µM). For the same compound, the MIC (Escherichia coli [23]) was 64 mg/L (≈ 134 µM), the MIC (Staphylococcus aureus [24]) was 16 mg/L (≈ 33.4 µM) and the MIC (Staphylococcus aureus [28]) was 64 mg/L (≈ 134 µM).
